Laboratory results reported in US20230287044A1, “NOVEL ANTIBACTERIAL PEPTIDE AND USE THEREOF” (priority 2020, published 2023).
Converted amounts (≈) assume the structure as drawn. Square brackets hold non-standard residues; d marks the D form. Peptide text beside a SMILES is read from it.

Columns and labels:
[1] = system: VRE (E. faecalis) ATCC 51575; format: cell-based, Enterococcus faecalis; details: ATCC 51575, 18 h
How it was run: (§1)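 Mid-log cultures grown in CAMHB and diluted to 1× 10^6 cfu/ml in PBS were mixed with an equal volume of peptide in CAMHB (80 µM to 0.63 µM twofold dilutions). MIC taken as the mean of three independent experiments.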

[2] = system: 30 species of Acinetobacter baumannii (A. baumannii); format: cell-based; details: against 30 species of Acinetobacter baumannii
Experimental: In addition, the results obtained by measuring the minimum inhibitory concentrations of KSH29, KSH42 and KSH43 against 30 species of Acinetobacter baumannii (A. baumannii) are shown in Table 4 below.
The minimum inhibitory concentrations (MIC) against the 30 species of Acinetobacter baumannii were measured in the following manner.
The strain 1605 was purchased from ATCC (American Type Culture Collection, USA). In addition, the strain 40203 was purchased from the Korean Culture Center of Microorganisms.
The COL^R refers to resistance to colistin, the TGC^R refers to resistance to tigecycline, and the TGC^I refers to tigecycline intermediate strains.

[3] = system: MRPA (P. aeruginosa) CCARM 2180; format: cell-based, Pseudomonas aeruginosa; details: CCARM 2180, 18 h
How it was run: as §1

[4] = Solubility of antibacterial peptides in solution; format: physicochemical
[5] = system: MRSA (S. aureus) KCCM 40510; format: cell-based, Staphylococcus aureus; details: KCCM 40510, 18 h
How it was run: as §1

[6] = system: MRAB (A. baumannii) ATCC BAA 1605; format: cell-based, Acinetobacter baumannii; details: CAMHB, 37° C., 18 hours; average of three experiments
How it was run: as §1

E. coli = test: In vivo antibacterial activity in mice (survival rate after E. coli infection); set-up: species or system mice (BALB/c); details: E. coli 1 × 10^6 cfu/mouse subcutaneous; 100 mg/kg after 1, 24 and 48 hours; observed 7 days
Experimental: The results obtained by analyzing the antibacterial activity against bacteria (E. coli) according to treatment with KSH43 as a survival rate of mice (BALB/c, female. 7-weeks) are shown in FIG. 216.
Specifically, the strains were grown in CAMHB until the log phase, and then washed with PBS buffer, and infected by subcutaneous injection into mice to 1 × 10^6 cfu/mouse. After 1 hour, 24 hours, and 48 hours, KSH43 and PBS (negative control) were administered at a dose of 100 mg/kg. Thereafter, the survival rate of the mice was checked every 12 hours for 7 days and compared to measure the in vivo antibacterial activity.

Question: Which results are given for `CC[C@@H](C)[C@@H](NC(=O)[C@@H](Cc1c[nH]c2ccccc12)NC(=O)[C@@H](CCCNC(=N)N)NC(=O)[C@@H](CCCNC(=N)N)NC(=O)[C@H](N)CCCNC(=N)N)C(=O)N[C@H](Cc1c[nH]c2ccccc12)C(=O)N[C@@H](C(=O)N[C@H](CC(C)C)C(=O)N[C@H](Cc1c[nH]c2ccccc12)C(=O)N[C@H](CCCCN)C(N)=O)C(C)C` [KSH43, rrrwiwvlwk] (H-[dR][dR][dR][dW][dI][dW][dV][dL][dW][dK]-NH2; N-terminus assumed)?
Answer: MIC VRE (E. faecalis) ATCC 51575 [1]: 0.63 µM (≈ 0.944 µg/mL); MIC50 [2]: 0.63 µM (≈ 0.944 µg/mL); MIC90 [2]: 1.25 µM (≈ 1.87 µg/mL); MIC MRPA (P. aeruginosa) CCARM 2180 [3]: 1.25 µM (≈ 1.87 µg/mL); solubility at 12 h ([4]; aqueous buffer): > 200 µM; solubility at 12 h ([4]; plasma or biological fluid): > 25 µM; solubility at 12 h ([4]; water): > 2000 µM; MIC MRSA (S. aureus) KCCM 40510 [5]: 0.63 µM (≈ 0.944 µg/mL); MIC MRAB (A. baumannii) ATCC BAA 1605 [6]: 0.63 µM (≈ 0.944 µg/mL); survival rate of mice (E. coli): all mice administered with KSH43 survived for 7 days
